# Test results reported in patent US20160237450A1, “METHOD FOR ENHANCING DROUGHT TOLERANCE IN PLANTS” (Plant Response Biotech S.L., priority 2015, published 2016).
# Key:
# Assay type in all cases: in vivo
# corn plants ('FAO700') [1] = experiment: Corn chlorophyll content under limited water; settings: 30% water; 1 g/L spray; after three months
# Method: (§1) In order to determine the drought or drought stress tolerance after seed treatments with TMAO di-hydrate and germination in the presence of TMAO di-hydrate, barley “Hispanic” seeds, corn “FAO700” seeds, and “Sambro” sunflower seeds were surface sterilized for 3 minutes in ethanol 70%, then rinsed twice and finally included in a pre-treatment solution of 1 g/L TMAO di-hydrate solution (or just water) under shaking for 3 hours at a dose of 1 litre per Kg of seeds. Then, the seeds were sown in randomized plots of 10 sqm in a surface of 2.000 sqm. Chlorophyll content was measured 1 month before harvest. In corn irrigation was applied in half of the plots while the other half only received an initial establishment watering. The barley plots received 200 l of rain per m^2 through the growing season. Some of the plots received a second spray treatment with 1 g/liter of TMAO. […] At least 3 independent plants were treated per experiment.
# TMAO di-hydrate applied exogenously increases plant production in corn which increases the endogenous content of TMAO as if the plants were overexpressing an FMO protein at least 4 times under limited water irrigation. ‘FAO700” corn seeds were sown, grown and treated as described above. […] After this time, the absorbance of the suspension (OD663) was determined as an indicator of chlorophyll concentration.
# [2] = tested on: broccoli plants (Parthenon); experiment: Broccoli inflorescence fresh weight with constant TMAO irrigation; settings: 100% water; constant irrigation with 1 g/L
# Description: (§2) TMAO di-hydrate applied exogenously which increases the endogenous content of TMAO as if the plants were overexpressing an FMO protein at least 4 times increases plant production in broccoli. Parthenon broccoli seeds were sown, grown and treated as described above. Constant irrigation with 1 g/L TMAO di-hydrate increased plant inflorescence production.
# corn plants ('FAO700') [3] = experiment: Corn grains per cob under limited water; settings: 30% water
# Method: as §1
# as §2, with “corn under limited water irrigation. ‘FAO700’ corn” for “broccoli. Parthenon broccoli”, “Spray treatments” for “Constant irrigation”, “grain” for “inflorescence”
# [4] = tested on: pepper plants ('Palermo'); experiment: Pepper fruit production, spray or constant irrigation
# Description: TMAO di-hydrate applied exogenously which increases the endogenous content of TMAO as if the plants were overexpressing an FMO protein at least 4 times increases pepper production per plant and pepper fruit weight under limited water irrigation and under no stress. ‘Palermo’ pepper seeds were sown, grown and treated as described above.
# [5] = tested on: broccoli plants (Parthenon); experiment: Yield production without drought stress, broccoli; settings: 1 g/l spray every 4 weeks for 3 months, no drought stress
# Method: (§3) In order to determine the plant yield productivity under normal conditions, ‘Sabrina’, ‘Candonga’ and ‘Fortuna’ strawberry varieties, leek, lettuce, “Iceberg” variety, broccoli “Parthenon” variety, celery or kohlrabi plants, were grown under standard production conditions and 120 plants of each variety per treatment (where the treatment was a control comprising standard watering or 1 g/L of TMAO di-hydrate spray every four weeks) were analyzed. Plants were located in four (4) different positions for each group of 30 plants from the same treatment. Fruits, leaves or roots were harvested from individual plants and total weight was determined for each plant.
# (§4) Root or leaves yield was determined in the plants treated with 1 g/l of TMAO di-hydrate or water as described above in order to evaluate the trade-off costs of the treatment with no drought stress.
# [6] = tested on: broccoli plants ('Parthenon'); experiment: Broccoli inflorescence production under limited water; settings: 30% water; for % Control (inflorescence weight): versus untreated 30% water
# Description: TMAO di-hydrate applied exogenously which increases the endogenous content of TMAO as if the plants were overexpressing an FMO protein at least 4 times increases plant production in broccoli under limited water irrigation. ‘Parthenon’ broccoli seeds were sown, grown and treated as described above. Spray and irrigation treatments with 1 g/L TMAO di-hydrate increased plant production, as measured by the average weight of the crown plus stems in grams.
# [7] = tested on: tomato plants ('Rio Grande'); experiment: Tomato fruit production under limited water irrigation; settings: 30% water irrigation; 1 g/L spray every 4 weeks
# Description: TMAO di-hydrate applied exogenously which increases the endogenous content of TMAO as if the plants were overexpressing an FMO protein at least 4 times increases plant production in tomato under limited water irrigation. ‘Rio Grande’ tomato seeds were sown, grown and treated as described. Spray treatments with 1 g/L TMAO di-hydrate increased both fruit size and fruit production.
# [8] = tested on: strawberry plants ('Sabrina', 'Candonga', 'Fortuna'); experiment: Strawberry fruit production without drought stress (trade-off); settings: no drought stress; for Strawberry fruit production, % Control (2013) / Strawberry fruit production, % Control (2014): 1 g/l spray every 4 weeks for 3 months
# Method: as §3
# Fruit yield was determined in ‘Sabrina’, ‘Candonga’ and ‘Fortuna’ strawberry plants treated with 1 g/l of TMAO di-hydrate or water as described above in order to evaluate the trade-off costs of the treatment with no drought stress.
# garlic plants = experiment: Yield production without drought stress, garlic; settings: 1 g/l spray every 4 weeks for 3 months, no drought stress
# Method: as §4
# kohlrabi plants = experiment: Yield production without drought stress, kohlrabi; settings: 1 g/l spray every 4 weeks for 3 months, no drought stress
# Method: as §3, §4
# lettuce plants (Iceberg) = experiment: Yield production without drought stress, lettuce; settings: 1 g/l spray every 4 weeks for 3 months, no drought stress
# Method: as §3, §4
# [9] = 30% water, 1 g/L in every irrigation
compound,measurement,setting,value
"C[N+](C)(C)[O-].O.O [TMAO di-hydrate, trimethylamine N-oxide di-hydrate]",OD663 ABSORVANCE (CHLOROPHYLL a),corn plants ('FAO700') [1],0.7278 ± 0.076
same,AVERAGE FRESH WEIGHT (GRAMS) PER INFLORESCENCE,[2],220.2 ± 16.6 GRAMS
same,increase of broccoli inflorescence fresh weight,[2],70%
same,AVERAGE NUMBER OF GRAINS PER COB,corn plants ('FAO700') [3]; 1 g/L seed treatment,542.89 ± 41.22
same,AVERAGE NUMBER OF GRAINS PER COB,corn plants ('FAO700') [3]; 1 g/L spray,511.34 ± 19.70
same,increase in total number of grains per corn cob compared to 100% water irrigation,"corn plants ('FAO700') [3]; 1 g/L, row 4",2%
same,increase in average fruit weight production per pepper plant versus 100% irrigation untreated,[4]; [9],13.3%
same,increase in average weight per pepper fruit versus 100% irrigation untreated,[4]; [9],11.9%
same,AVERAGE FRUIT WEIGHT (GRAMS) PER PEPPER PLANT,"[4]; 30% water, 1 g/L irrigation",545.0 ± 36.4 GRAMS
same,AVERAGE FRUIT WEIGHT (GRAMS) PER PEPPER PLANT,"[4]; 30% water, 1 g/L spray",504.8 ± 46.4 GRAMS
same,AVERAGE WEIGHT (GRAMS) PER PEPPER FRUIT,"[4]; 30% water, 1 g/L spray",33.5 ± 0.9 GRAMS
same,increase in average fruit weight production per pepper plant versus 100% irrigation untreated,"[4]; 30% water, 1 g/L spray",4.9%
same,increase in average fruit weight production per pepper plant in the absence of stress,"[4]; 100% water, 1 g/L in every irrigation",17.9%
same,AVERAGE FRUIT WEIGHT (GRAMS) PER PEPPER PLANT,"[4]; 100% water, 1 g/L irrigation",567.4 ± 19.6 GRAMS
same,AVERAGE WEIGHT (GRAMS) PER PEPPER FRUIT,"[4]; 100% water, 1 g/L irrigation",35.7 ± 1.3 GRAMS
same,"Yield production, % Control",[5],120%
same,AVERAGE WEIGHT (grams/inflorescence),[6]; 1 g/L irrigation,85.2 ± 4.6 grams/inflorescence
same,% Control (inflorescence weight),[6]; 1 g/L irrigation,106%
same,AVERAGE WEIGHT (grams/inflorescence),[6]; 1 g/L spray,87.3 ± 6.7 grams/inflorescence
same,% Control (inflorescence weight),[6]; 1 g/L spray,108%
same,AVERAGE WEIGHT (grams/fruit),[7],76.73 ± 17.67 grams/fruit
same,increase of fruit production over untreated plants with 30% irrigation,[7],45%
same,difference in fruit production versus water-treated plants,[8]; 1 g/l,no significant difference
same,"Strawberry fruit production, % Control (2013)",[8]; Candonga,102%
same,"Strawberry fruit production, % Control (2014)",[8]; Candonga,106%
same,"Strawberry fruit production, % Control (2013)",[8]; Fortuna,101%
same,"Strawberry fruit production, % Control (2014)",[8]; Fortuna,105%
same,"Strawberry fruit production, % Control (2013)",[8]; Sabrina,106%
same,"Strawberry fruit production, % Control (2014)",[8]; Sabrina,115%
same,"Strawberry fruit production, % Control (2013)",[8]; Total of varieties,105%
same,"Strawberry fruit production, % Control (2014)",[8]; Total of varieties,111%
same,"Yield production, % Control",garlic plants,109%
same,"Yield production, % Control",kohlrabi plants,103%
same,"Yield production, % Control",lettuce plants (Iceberg),112%
